Consider five molecules from US11066445B2, “Immunomodulators acting as antagonists of PD-1” (Bristol-Myers Squibb Company, priority 2017, dated 2021).

Like-named read-outs stand apart in the source and are kept apart here. Positions of bridges follow the written chain, without caps; N, C: chain ends. Non-standard residues stand in square brackets, D forms with d. Residues, ends and D or L forms follow the SMILES beside them. *: point of attachment. X3 = O=C(O)CCCCCCCCCCCCCCCCC(=O)N[C@@H](CCC(=O)NCCCOCCOCCOCCCN*)C(=O)O; X1 = O=C(O)CCCCCCCCCCCCCCC(=O)N[C@@H](CCC(=O)NCCCOCCOCCOCCCN*)C(=O)O; Trp(4-aza,1-CH2COOH) = N[C@@H](Cc1cn(CC(=O)O)c2cccnc12)C(=O)O; Trp(1-CH2CO2Me) = COC(=O)Cn1cc(C[C@H](N)C(=O)O)c2ccccc21; d(cisHyp) = O=C(O)[C@H]1C[C@@H](O)CN1; Hyp = O=C(O)[C@@H]1C[C@@H](O)CN1; NMeNle = CCCC[C@H](NC)C(=O)O; NMeA = CN[C@@H](C)C(=O)O; Dab = NCC[C@H](N)C(=O)O; Dap = NC[C@H](N)C(=O)O; Sar = CNCC(=O)O

This assay has as its target T1, PD-1-Ig binding to PD-L1-TVMV-His (PD-L1-His) (Homo sapiens, UniProt Q9NZQ7).
T1 construct: hPDL1(19-239)-TVMV-His; TVMV protease cleavage site (C); made in house; host or cells: HEK293T cells
In words: PD-1/PD-L1 Homogenous Time-Resolved Fluorescence (HTRF) binding assay. The note with it: PD-1-Ig (20 nM) / PD-L1-His (10 nM), read-out: LE HTRF hPD1 hPDL1 IC50. From the text: Methods for Testing the Ability of Macrocyclic Peptides to Compete for the Binding of Pd-1 to Pd-L1 Using Homogenous Time-Resolved Fluorescence (HTRF) Binding Assays
The ability of the macrocyclic peptides of the present disclosure to bind to PD-L1 was investigated using a PD-1/PD-L1 Homogenous Time-Resolved Fluorescence (HTRF) binding assay.
Homogenous Time-Resolved Fluorescence (HTRF) Assays of Binding of Soluble PD-1 to Soluble PD-L1. Soluble PD-1 and soluble PD-L1 refers to proteins with carboxyl-end truncations that remove the transmembrane-spanning regions and are fused to heterologous sequences, specifically the Fc portion of the human immunoglobuling G sequence (Ig) or the hexahistidine epitope tag (His). All binding studies were performed in an HTRF assay buffer consisting of dPBS supplemented with 0.1% (w/v) bovine serum albumin and 0.05% (v/v) Tween-20. For the PD-1-Ig/PD-L1-His binding assay, inhibitors were pre-incubated with PD-L1-His (10 nM final) for 15 m in 4 μl of assay buffer, followed by addition of PD-1-Ig (20 nM final) in 1 μl of assay buffer and further incubation for 15 m. PD-L1 fusion proteins from either human, cynomologous macaques, mouse, or other species were used. HTRF detection was achieved using europium crypate-labeled anti-Ig monoclonal antibody (1 nM final) and allophycocyanin (APC) labeled anti-His monoclonal antibody (20 nM final). Antibodies were diluted in HTRF detection buffer and 5 μl was dispensed on top of binding reaction. The reaction was allowed to equilibrate for 30 minutes and signal (665 nm/620 nm ratio) was obtained using an EnVision fluorometer. Additional binding assays were established between PD-1-Ig/PD-L2-His (20 and 5 nM, respectively), CD80-His/PD-L1-Ig (100 and 10 nM, respectively) and CD80-His/CTLA4-Ig (10 and 5 nM, respectively). Binding/competition studies between biotinylated Compound No. 71 and human PD-L1-His were performed as follows. Macrocyclic peptide inhibitors were pre-incubated with PD-L1-His (10 nM final) for 60 minutes in 4 μl of assay buffer followed by addition of biotinylated Compound No. 71 (0.5 nM final) in 1 μl of assay buffer. Binding was allowed to equilibrate for 30 minutes followed by addition of europium crypated labeled Streptavidin (2.5 pM final) and APC-labeled anti-His (20 nM final) in 5 μl of HTRF buffer. The reaction was allowed to equilibrate for 30 m and signal (665 nm/620 nm ratio) was obtained using an EnVision fluorometer.
Recombinant Proteins. Carboxyl-truncated human PD-1 (amino acids 25-167) with a C-terminal human Ig epitope tag [hPD-1 (25-167)-3S-IG] and human PD-L1 (amino acids 18-239) with a C-terminal His epitope tag [hPD-L1(19-239)-tobacco vein mottling virus protease cleavage site (TVMV)-His] were expressed in HEK293T cells and purified sequentially by recombinant Protein A affinity chromatography and size exclusion chromatography. Human PD-L2-His (Sino Biologicals), CD80-His (Sino Biologicals), CTLA4-Ig (RnD Systems) were all obtained through commercial sources.
Ranges are as follows: A=0.010-0.060 μM; B=0.0011-0.009 μM; C=0.0003-0.0010 μM.
(TR-FRET usually uses a lanthanide donor and a delayed reading to cut background.)

T1 sequence (Q9NZQ7 with tags, fused parts or gaps): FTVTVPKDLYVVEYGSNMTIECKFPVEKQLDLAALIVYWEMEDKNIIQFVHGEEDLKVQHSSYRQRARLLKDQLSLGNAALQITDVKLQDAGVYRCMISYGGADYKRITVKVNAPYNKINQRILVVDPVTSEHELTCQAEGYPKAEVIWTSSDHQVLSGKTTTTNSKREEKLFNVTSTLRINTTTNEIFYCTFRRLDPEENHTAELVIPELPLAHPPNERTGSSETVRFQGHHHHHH

Usually IC50 stands for the midpoint of a concentration-inhibition curve. Consider `CCCC[C@H]1C(=O)N(C)[C@@H](CCCC)C(=O)N[C@@H](CC(C)C)C(=O)N[C@H](C(=O)NCC(=O)N[C@@H](CC(=O)NCCCOCCOCCOCCCNC(=O)CC[C@H](NC(=O)CCCCCCCCCCCCCCCCC(=O)O)C(=O)O)C(=O)O)CSCC(=O)N[C@@H](Cc2ccc(O)cc2)C(=O)N(C)[C@@H](C)C(=O)N[C@@H](CC(N)=O)C(=O)N(C)CC(=O)N[C@@H](CN)C(=O)N[C@@H](CC(C)C)C(=O)N2C[C@H](O)C[C@@H]2C(=O)N[C@@H](Cc2c[nH]c3ccccc23)C(=O)N[C@@H](CCN)C(=O)N[C@@H](Cc2cn(CC(=O)O)c3cccnc23)C(=O)N1C` [Example 8] ({CH2CO}-Y[NMeA]N[Sar][Dap]L[d(cisHyp)]W[Dab][Trp(4-aza,1-CH2COOH)][NMeNle][NMeNle]LCGD(X3)-OH; thioether N-14), for which, under “range classes”, the IC50 was in the range of 1.1 to 9 nM.

For the molecule `CCCC[C@H]1C(=O)N(C)[C@@H](CCCC)C(=O)N[C@@H](CC(C)C)C(=O)N[C@H](C(=O)NCC(=O)N[C@@H](CC(=O)NCCCOCCOCCOCCCNC(=O)CC[C@H](NC(=O)CCCCCCCCCCCCCCCCC(=O)O)C(=O)O)C(=O)O)CSCC(=O)N[C@@H](Cc2ccc(O)cc2)C(=O)N(C)[C@@H](C)C(=O)N[C@@H](CC(N)=O)C(=O)N(C)CC(=O)N[C@@H](CN)C(=O)N[C@@H](CC(C)C)C(=O)N2C[C@H](O)C[C@@H]2C(=O)N[C@@H](Cc2c[nH]c3ccccc23)C(=O)N[C@@H](CCN)C(=O)N[C@@H](Cc2cn(CC(=O)OC)c3ccccc23)C(=O)N1C` [Example 10] ({CH2CO}-Y[NMeA]N[Sar][Dap]L[d(cisHyp)]W[Dab][Trp(1-CH2CO2Me)][NMeNle][NMeNle]LCGD(X3)-OH; thioether N-14), the IC50 (range classes) was in the range of 1.1 to 9 nM.

For `CCCC[C@H]1C(=O)N(C)[C@@H](CCCC)C(=O)N[C@@H](CC(C)C)C(=O)N[C@H](C(=O)N[C@@H](Cc2cn(CCOCCOCCOCCOCCOCCOCCOCCOCCOCCOCCOCCNC(=O)CC[C@H](NC(=O)CCCCCCCCCCCCCCCCC(=O)O)C(=O)O)nn2)C(=O)O)CSCC(=O)N[C@@H](Cc2ccc(O)cc2)C(=O)N(C)[C@@H](C)C(=O)N[C@@H](CC(N)=O)C(=O)N2CCC[C@H]2C(=O)N[C@@H](CN)C(=O)N[C@@H](CC(C)C)C(=O)N2C[C@H](O)C[C@H]2C(=O)N[C@@H](Cc2c[nH]c3ccccc23)C(=O)N[C@@H](CCN)C(=O)N[C@@H](Cc2nn(CC(=O)O)c3ccccc23)C(=O)N1C` [Example 22], the concentration for half-maximal inhibition (IC50) (numeric values) was found to be 0.6 nM.

Take `CCCC[C@H]1C(=O)N(C)[C@@H](CCCC)C(=O)N[C@@H](CC(C)C)C(=O)N[C@H](C(=O)NCC(=O)N[C@@H](Cc2cn(CCOCCOCCOCCOCCOCCOCCOCCOCCOCCOCCOCCNC(=O)CC[C@H](NC(=O)CCCCCCCCCCCCCCCCC(=O)O)C(=O)O)nn2)C(=O)O)CSCC(=O)N[C@@H](Cc2ccc(O)cc2)C(=O)N(C)[C@@H](C)C(=O)N[C@@H](CC(N)=O)C(=O)N2CCC[C@H]2C(=O)N[C@@H](CN)C(=O)N[C@@H](CC(C)C)C(=O)N2C[C@H](O)C[C@H]2C(=O)N[C@@H](Cc2c[nH]c3ccccc23)C(=O)N[C@@H](CCN)C(=O)N[C@@H](Cc2nn(CC(=O)O)c3ccccc23)C(=O)N1C` [Example 29]: the IC50 (range classes) is 0.3 to 1 nM.

`CCCC[C@H]1C(=O)N(C)[C@@H](CCCC)C(=O)N[C@@H](CC(C)C)C(=O)N[C@H](C(=O)NCC(=O)N[C@@H](CC(=O)NCCCOCCOCCOCCCNC(=O)CC[C@H](NC(=O)CCCCCCCCCCCCCCC(=O)O)C(=O)O)C(=O)O)CSCC(=O)N[C@@H](Cc2ccc(O)cc2)C(=O)N(C)[C@@H](C)C(=O)N[C@@H](CC(N)=O)C(=O)N2CCC[C@H]2C(=O)N[C@@H](CN)C(=O)N[C@@H](CC(C)C)C(=O)N2C[C@H](O)C[C@H]2C(=O)N[C@@H](Cc2c[nH]c3ccccc23)C(=O)N[C@@H](CCN)C(=O)N[C@@H](Cc2cn(CC(=O)O)c3cccnc23)C(=O)N1C` [Example 18] ({CH2CO}-Y[NMeA]NP[Dap]L[Hyp]W[Dab][Trp(4-aza,1-CH2COOH)][NMeNle][NMeNle]LCGD(X1)-OH; thioether N-14): the IC50 (range classes) fell in the range of 10 to 60 nM.
